Drawing on US20230019491A1, “PYRIMIDINE TBK/IKKe INHIBITOR COMPOUNDS AND USES THEREOF” (Merck Patent GmbH, priority 2017, published 2023), this text covers IC50 for 18 compounds.

The target of one test is T1, TBK1 (Homo sapiens, UniProt Q9UHD2).
T1 sequence (Q9UHD2 1-729): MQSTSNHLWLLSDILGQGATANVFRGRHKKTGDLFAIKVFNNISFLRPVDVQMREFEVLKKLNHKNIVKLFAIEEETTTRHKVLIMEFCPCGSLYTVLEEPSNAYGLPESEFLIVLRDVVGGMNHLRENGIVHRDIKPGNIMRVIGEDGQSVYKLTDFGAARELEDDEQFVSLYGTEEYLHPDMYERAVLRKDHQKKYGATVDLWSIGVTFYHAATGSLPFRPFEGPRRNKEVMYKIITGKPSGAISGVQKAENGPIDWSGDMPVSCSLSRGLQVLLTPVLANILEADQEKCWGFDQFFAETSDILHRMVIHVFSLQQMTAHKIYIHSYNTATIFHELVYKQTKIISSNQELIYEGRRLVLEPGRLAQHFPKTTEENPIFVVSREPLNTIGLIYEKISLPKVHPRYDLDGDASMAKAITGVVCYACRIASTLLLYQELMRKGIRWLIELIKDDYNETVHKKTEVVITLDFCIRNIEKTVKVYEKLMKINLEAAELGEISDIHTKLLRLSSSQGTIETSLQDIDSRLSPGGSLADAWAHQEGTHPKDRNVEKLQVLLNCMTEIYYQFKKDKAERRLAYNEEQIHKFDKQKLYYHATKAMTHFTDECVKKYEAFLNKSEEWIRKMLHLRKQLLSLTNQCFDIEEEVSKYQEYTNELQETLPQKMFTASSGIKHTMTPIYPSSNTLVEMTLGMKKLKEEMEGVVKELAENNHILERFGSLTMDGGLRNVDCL
Description: TBK biochemical assay. The conditions noted are these: 10 point 1:4 dose response, 30 uM top concentration, 90 min at 25° C., LabChip EZ Reader II; read-out: TBK1_IC50. The gist of the method:
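Substrate and product were separated and quantified by microfluidic mobility-shift read (LabChip). 10 uM staurosporine served as the full-inhibition control, and the reference compound was tested from 1 uM final.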

For the next test, the target named is T2, IKKε (Homo sapiens, UniProt Q14164).
T2 sequence (Q14164 1-716): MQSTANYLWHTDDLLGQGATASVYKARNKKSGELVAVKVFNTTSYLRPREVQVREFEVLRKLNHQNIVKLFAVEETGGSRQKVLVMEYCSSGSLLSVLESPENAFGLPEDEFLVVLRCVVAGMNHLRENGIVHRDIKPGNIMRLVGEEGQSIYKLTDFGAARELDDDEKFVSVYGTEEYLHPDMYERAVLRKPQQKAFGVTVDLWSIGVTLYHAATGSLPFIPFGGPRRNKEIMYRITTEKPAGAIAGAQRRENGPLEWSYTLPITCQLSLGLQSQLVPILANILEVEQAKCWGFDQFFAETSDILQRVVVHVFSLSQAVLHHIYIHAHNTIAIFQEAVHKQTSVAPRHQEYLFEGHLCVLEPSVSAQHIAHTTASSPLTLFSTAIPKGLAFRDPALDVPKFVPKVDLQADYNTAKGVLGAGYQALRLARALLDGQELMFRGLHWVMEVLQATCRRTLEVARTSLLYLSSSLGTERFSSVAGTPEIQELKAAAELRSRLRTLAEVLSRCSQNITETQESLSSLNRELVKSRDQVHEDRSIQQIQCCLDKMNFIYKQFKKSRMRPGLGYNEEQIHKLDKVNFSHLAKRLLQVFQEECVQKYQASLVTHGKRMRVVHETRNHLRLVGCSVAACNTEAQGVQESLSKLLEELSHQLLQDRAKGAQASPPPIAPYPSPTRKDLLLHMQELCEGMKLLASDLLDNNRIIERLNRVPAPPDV
Description: IKKε biochemical assay. The following applies: 10 point 1:4 dose response, 30 uM top concentration, 90 min at 25° C., LabChip EZ Reader II; read-out: IKKε_IC50. In a few lines: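 Compounds in 1% DMSO final were incubated with IKKε enzyme and substrate at 25° C. for 90 min, then stopped. Substrate and product peaks were resolved by LabChip EZ Reader II mobility-shift read-out. Staurosporine at 10 uM final served as the full-inhibition control.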

Where a name gives a salt, the structure may show the parent alone.

Regarding `CC(O)C(=O)N1CCC(Oc2ccc(-c3nc(Nc4ccc(N5CCN(C6COC6)CC5)cc4)ncc3F)cc2C#N)C(F)(F)C1` (stereo not drawn) [Example 299, 2-{[3,3-difluoro-1-(2-hydroxypropanoyl)piperidin-4-yl]oxy}-5-[5-fluoro-2-({4-[4-(oxetan-3-yl)piperazin-1-yl]phenyl}amino)pyrimidin-4-yl]benzonitrile], the IC50 at TBK1 and on IKKε was below 100 nM in each case.
As to `CN1CCC(Oc2ccc(-c3ccnc(Nc4ccc(N5CCN(C)CC5)cn4)n3)cc2C#N)CC1` [Example 83, 5-(2-[[5-(4-methylpiperazin-1-yl)pyridin-2-yl]amino]pyrimidin-4-yl)-2-[(1-methylpiperidin-4-yl)oxy]benzonitrile], the IC50 was above 5000 nM at TBK1 and 1000 to 5000 nM on IKKε.
Regarding `COc1nc(Nc2nccc(-c3ccc(OC4CCN(C(=O)[C@H](C)O)CC4(F)F)c(C#N)c3)n2)ccc1C(=O)N(C)C` (stereo partly drawn) [Example 324, 6-([4-[3-cyano-4-([3,3-difluoro-1-[(2S)-2-hydroxypropanoyl]piperidin-4-yl]oxy)phenyl]pyrimidin-2-yl]amino)-2-methoxy-N,N-dimethylpyridine-3-carboxamide], the IC50 on TBK1 and on IKKε was below 100 nM throughout.
Regarding `COc1nc(Nc2nccc(-c3ccc(O[C@@H]4CCN(C(=O)CO)CC4(F)F)c(C#N)c3)n2)ccc1N1CCN(C)CC1` [Example 101, 2-[[(4R)-3,3-difluoro-1-(2-hydroxyacetyl)piperidin-4-yl]oxy]-5-(2-[[6-methoxy-5-(4-methylpiperazin-1-yl)pyridin-2-yl]amino]pyrimidin-4-yl)benzonitrile], the IC50 on TBK1 and on IKKε was below 100 nM throughout.
As to `COc1nc(Nc2nccc(-c3ccc(OC4CCOCC4)c(C#N)c3)n2)ccc1C(=O)N1C2COCC1CC(O)C2` (stereo not drawn) [Example 17, 5-(2-[[5-([7-hydroxy-3-oxa-9-azabicyclo[3.3.1]nonan-9-yl]carbonyl)-6-methoxypyridin-2-yl]amino]pyrimidin-4-yl)-2-(oxan-4-yloxy)benzonitrile], the IC50 on TBK1 and on IKKε was below 100 nM in each case.
Turning to `COc1nc(Nc2nccc(-c3ccc(OC4CCOCC4)c(C#N)c3)n2)ccc1N1C[C@@H](C)N(C)[C@@H](C)C1` [Example 36, 5-[2-([6-methoxy-5-[cis-3,4,5-trimethylpiperazin-1-yl]pyridin-2-yl]amino)pyrimidin-4-yl]-2-(oxan-4-yloxy)benzonitrile], the IC50 at TBK1 and on IKKε was below 100 nM throughout.
With `COc1nc(Nc2nccc(-c3ccc(OC4CCN(C(=O)[C@@H](C)O)CC4(F)F)c(C#N)c3)n2)ccc1N1CCN(C2COC2)C[C@H]1C` (stereo partly drawn) [Example 130, 2-[3,3-Difluoro-1-((R)-2-hydroxy-propionyl)-piperidin-4-yloxy]-5-{2-[6-methoxy-5-((R)-2-methyl-4-oxetan-3-yl-piperazin-1-yl)-pyridin-2-ylamino]-pyrimidin-4-yl}-benzonitrile], the IC50 on TBK1 and on IKKε was below 100 nM each time.
Regarding `COc1nc(Nc2ncc(F)c(-c3ccc(O[C@H]4CCN(C(=O)[C@H](C)O)C[C@H]4F)c(C#N)c3)n2)ccc1N1CCN(C2COC2)CC1` [Example 298, 2-({3-fluoro-1-[(2S)-2-hydroxypropanoyl]piperidin-4-yl}oxy)-5-[5-fluoro-2-({6-methoxy-5-[4-(oxetan-3-yl)piperazin-1-yl]pyridin-2-yl}amino)pyrimidin-4-yl]benzonitrile], the IC50 at TBK1 and on IKKε was below 100 nM throughout.
Consider `COc1nc(Nc2ncc(F)c(-c3ccc(OC4CCN(C(=O)[C@H](C)O)CC4(F)F)c(C#N)c3)n2)ccc1N1CCN(C2COC2)CC1` (stereo partly drawn) [Example 287, 2-([3,3-difluoro-1-[(2S)-2-hydroxypropanoyl]piperidin-4-yl]oxy)-5-[5-fluoro-2-([6-methoxy-5-[4-(oxetan-3-yl)piperazin-1-yl]pyridin-2-yl]amino)pyrimidin-4-yl]benzonitrile], for which the IC50 at TBK1 and on IKKε was below 100 nM throughout.
On to `COc1nc(Nc2nccc(-c3ccc(O[C@H]4CCNC[C@H]4F)c(C#N)c3)n2)ccc1N1CCN(C)CC1` [Example 95], for which the IC50 on TBK1 and at IKKε was below 100 nM in each case.
With `COc1nc(Nc2nccc(-c3ccc(OC4CCOCC4)c(C#N)c3)n2)ccc1N(C)CC(=O)N(C)C` [Example 35, 2-[[6-([4-[3-cyano-4-(oxan-4-yloxy)phenyl]pyrimidin-2-yl]amino)-2-methoxypyridin-3-yl](methyl)amino]-N,N-dimethylacetamide hydrochloride], the IC50 at TBK1 and at IKKε was below 100 nM each time.
For `COc1cccc(Nc2nccc(-c3ccc(OC4CCN(C(=O)C(C)O)CC4(F)F)c(C#N)c3)n2)n1` (stereo in doubt) [Example 328, 2-([3,3-difluoro-1-[(2S)-2-hydroxypropanoyl]piperidin-4-yl]oxy)-5-[2-[(6-methoxypyridin-2-yl)amino]pyrimidin-4-yl]benzonitrile], the IC50 on TBK1 and on IKKε was below 100 nM throughout.
As for `CN(C)C(=O)c1ccc(Nc2nccc(-c3ccc(OC4CCOCC4)c(C#N)c3)n2)cn1` [Example 23, 5-([4-[3-cyano-4-(oxan-4-yloxy)phenyl]pyrimidin-2-yl]amino)-N,N-dimethylpyridine-2-carboxamide], the IC50 at TBK1 and at IKKε was below 100 nM each time.
Regarding `COc1nc(Nc2nccc(-c3ccc(OC4(C)CCNCC4(F)F)c(C#N)c3)n2)ccc1N1CCN(C2COC2)CC1` (stereo not drawn) [Example 263, 2-(3,3-Difluoro-4-methyl-piperidin-4-yloxy)-5-{2-[6-methoxy-5-(4-oxetan-3-yl-piperazin-1-yl)-pyridin-2-ylamino]-pyrimidin-4-yl}-benzonitrile], the IC50 on TBK1 and on IKKε was below 100 nM in each case.
`N#Cc1cc(-c2ccnc(Nc3ccc(C4CCN(C5COC5)CC4)cc3)n2)ccc1OC1CCNCC1(F)F` (stereo not drawn) [Example 150, 2-(3,3-Difluoro-piperidin-4-yloxy)-5-{2-[4-(1-oxetan-3-yl-piperidin-4-yl)-phenylamino]-pyrimidin-4-yl}-benzonitrile hydrochloride]: the IC50 on TBK1 and on IKKε was below 100 nM throughout.
`COc1nc(Nc2nccc(-c3ccc(O[C@@H]4CCN(C(=O)[C@H](C)O)C[C@H]4F)c(C#N)c3)n2)ccc1C1CCN(C2COC2)CC1` [Example 192, 2-[(3R,4R)-3-Fluoro-1-((S)-2-hydroxy-propionyl)-piperidin-4-yloxy]-5-[2-(2-methoxy-1′-oxetan-3-yl-1′,2′,3′,4′,5′,6′-hexahydro-[3,4′]bipyridinyl-6-ylamino)-pyrimidin-4-yl]-benzonitrile]: the IC50 at TBK1 and at IKKε was below 100 nM each time.
For the compound `COc1nc(Nc2nccc(-c3ccc(OC4CCOCC4)c(C#N)c3)n2)ccc1C(=O)N1CCS(=O)(=O)CC1` [Example 5, 5-{2-[5-(1,1-Dioxo-thiomorpholine-4-carbonyl)-6-methoxy-pyridin-2-ylamino]-pyrimidin-4-yl}-2-(tetrahydro-pyran-4-yloxy)-benzonitrile], the IC50 on TBK1 and on IKKε was below 100 nM throughout.
As for `COCCN1CCN(c2ccc(Nc3nccc(-c4ccc(OC5CCOCC5)c(C#N)c4)n3)nc2OC)CC1` [Example 166], the IC50 on TBK1 and at IKKε was below 100 nM in each case.
